Values quoted from earlier work as cited in patent US10597401B2, “Methods and intermediates for the preparation of omacetaxine and cephalotaxine derivatives thereof” (ALBANY MOLECULAR RESEARCH, INC., priority 2015, dated 2020).

Conditions: background statement, no test described

COC1=C[C@]23CCCN2CCc2cc4c(cc2[C@@H]3[C@@H]1O)OCO4 [cephalotaxine]
biological activity: biologically inactive
